# Assay results reported in patent publication US7148380B2, “Bio-energy muscle relaxants” (priority 2000, dated 2006).
# “And” between values parts separate entries of the source, which are not always exact repeats. Equal entries are not always repeated. Where two headings read alike, the source gives them in different places.
# Assays:
# [1] = tested on: drug-induced asthma in guinea pig; test: Asthmatic latent period / drug-induced asthma in guinea pig (acetylcholine + histamine inhalation); format: in vivo
# Experimental: Sensitive animals were chosen by aerosolized inhalation of asthma-inducing agents—a mixed solution of 2% acetylcholine with 0.1% histamine for 15 sec., inducing an asthmatic attack with severe difficulty in respiration and finally resulting in the animal body turned down. The time from beginning of the inhalation to animal turned down was recorded as an index named “turned down time” or asthmatic latent period. Those animals with turned down time less than 120 s. were selected for the study next day. […] Then the latent period was recorded for each of the animals.
# (1) Screening animals: animal was put in a glass container, a mixed solution of 2% acetylcholine and 0.1% histamine was nebulized with a pressure of 400 mmHg and inhaled by the animals for 15 sec. Following the end of the inhalation, the time between beginning of the inhalation and the animal turned down due to bronchial spasm and dyspnea was recorded as asthmatic latent period. Those animals with a latent period beyond 120 s. were excluded, and those with a latent period less than 120 s were selected for study the next day.
# (4) Measuring: Repeat the inhalation at 30 min, 4 h, and 24 h after administration of the drugs respectively. Asthmatic latent period was recorded, 6 minutes were taken as the maximum, and values beyond 6 min were counted as 6 min.
# (5) Data analysis: Values were expressed as mean±sd, and paired for “t” and chi-square tests. Significance was considered to be established when p<0.05.
# [2] = tested on: isolated colon tissues from guinea pigs; test: Isolated colon smooth muscle contraction induced by BaCl2; design: species or system guinea pig
# Description: To investigate this effect, 14 guinea pigs (provided by the Center of Experimental Animals, First Military Medical University, Guangzhou, China, certificate No. 99A047) with body weight of 240±20 g were used for the study. Following sacrifice of the animal by cervical dislocation, the colon was isolated within Botting solution, a segment of the colon in 2 cm length was taken to mount on the equipment—one end connected to a force transducer, the other end fixed at the bottom of the organ water-bath (DC-001 Organ Bath, made in Nanjin, China) containing oxygenated nutritious solution at 37° C.
# Group “t” test was then made. Significance is considered to be established when P<0.05
# The animals were divided as test group and control (placebo) group.
# Where Fc is force of the smooth muscle contraction.
# Paired group “t” test was made to compare contraction force after BDM and distilled water to determine whether there is a significant difference between the two groups.
# [3] = tested on: hypertension induced by aramine; test: Aramine-induced hypertension, preventive test; format: in vivo, SD rats
# Experimental: (§1) Eighteen (18) SD rats (provided by the Center of Experimental Animals, First Military Medical University, Guang Zhou, China, Certificate No. 99A046) with body weight of 200–250 g were used for the study. The animal was anesthetized with urethane (1.4 g/kg, I.P.), then the main cervical artery was exposed and cannulated, blood pressure was monitored during the experiment. After a 30-minute stabilization period after the operation, normal blood pressure curves were recorded.
# [4] = tested on: hypertension induced by aramine; test: Aramine-induced hypertension, curative test; format: in vivo, SD rats
# Experimental: as §1
# [5] = tested on: convulsion induced by strychnine; format: in vivo, NIH mice; details: for Convulsion / The latent period / Convulsion-Death time / Death: n=12; for The latent period / Convulsion-Death time: mean±SD; for Convulsion-Death time: P<0.01 vs control
# Experimental: To investigate the effect, 36 mice (provided by the Center of Experimental Animals, Provincial Health Department, Guangdong, China, Certificate No. 99A030) were used for the study, the animals were grouped as placebo, preventing, and treatment groups. Muscle convulsion was induced with injection of strychnine (1.5 mg/kg I.P., injection product of 2 mg/ml, He Feng Pharmaceutical Co., Shanghai, China, Lot. No. 990701), the beginning and lasting time of the convulsion were recorded.
# Half male and female healthy NIH mice with body weight of 20±2 g were selected for the study. The animals were randomly divided into three groups as protective, curative, and control (saline). […] In the control group, saline (20 ml/kg, I.P.) was administered 0.5 h before the strychnine. Immediately following the injection of strychnine, convulsion latent period and the time from beginning of convulsion to death of the animal were recorded. […] (see Table 7).
# [6] = 10 ml/kg I.P. (BDM 0.2M, aminophylline 1.25%), mean±sd
# [7] = BDM 0.2 M, 10 ml/kg, I.P. after aramine
# [8] = control fluctuating within ±15 mmHg
# [9] = curative: BDM immediately after strychnine
# [10] = preventive: BDM 0.5 h prior to strychnine
smiles,measurement,setting,value
"CC(=O)C(C)=NO [BDM, 2,3-butanedione monoxime]","Asthamatic Latent Period, 4 hours after administration",[1]; [6],99.2 ± 42.1 s
same,"Asthamatic Latent Period, 24 hours after administration",[1]; [6],81.8 ± 11.0 s
same,Incidence of asthmatic spasm,"[1]; 30 min after administration, down from 100%, not significant",60%
same,"Asthamatic Latent Period, before administration","[1]; baseline before drug, 10 ml/kg I.P. (BDM 0.2M, aminophylline 1.25%), mean±sd",70.4 ± 21.1 s
same,Effect on the latent period,[1]; four and 24 h after administration,no significant effect
same,"Contraction force, After","[2]; BaCl2 0.67 g/L, 10 min after BDM 0.2M, 20 ml/L nutritious sol., single preparations",1.70 g and 1.35 g and 1.45 g and 1.75 g and 2.20 g
same,"Contraction force, Before","[2]; BaCl2 0.67 g/L, before BDM, single colon preparations of the test group",2.35 g and 2.30 g and 2.45 g and 2.70 g and 2.90 g
same,Contraction Rate,"[2]; force after / before BDM 0.2M, 20 ml/L, single preparations",72.3% and 58.7% and 61.7% and 76.1% and 69.4% and 64.8% and 75.9%
same,Diastolic pressure 2 minutes after BDM administration,"[3]; BDM 0.2 M, 10 ml/kg, I.P.",39.7 ± 6.4^★★ mmHg
same,Diastolic pressure 5 minutes after BDM administration,"[3]; BDM 0.2 M, 10 ml/kg, I.P.",39.0 ± 8.7^★★ mmHg
same,Diastolic pressure 10 minutes after BDM administration,"[3]; BDM 0.2 M, 10 ml/kg, I.P.",43.0 ± 8.5^★★ mmHg
same,Systolic pressure 2 minutes after BDM administration,"[3]; BDM 0.2 M, 10 ml/kg, I.P.",88.0 ± 5.2^★★ mmHg
same,Systolic pressure 5 minutes after BDM administration,"[3]; BDM 0.2 M, 10 ml/kg, I.P.",84.0 ± 6.7^★★ mmHg
same,Systolic pressure 10 minutes after BDM administration,"[3]; BDM 0.2 M, 10 ml/kg, I.P.",88.2 ± 7.7^★★ mmHg
same,Diastolic pressure 2 minutes after aramine administration,[3]; BDM given before aramine,76.2 ± 21.5^★★ mmHg
same,Diastolic pressure 5 minutes after aramine administration,[3]; BDM given before aramine,76.5 ± 11.9^★★ mmHg
same,Diastolic pressure 10 minutes after aramine administration,[3]; BDM given before aramine,77.0 ± 22.4^★★ mmHg
same,Systolic pressure 5 minutes after aramine administration,[3]; BDM given before aramine,127.5 ± 16.1^★★ mmHg
same,Systolic pressure 10 minutes after aramine administration,[3]; BDM given before aramine,127.7 ± 17.3^★★ mmHg
same,Systolic pressure 2 minutes after aramine administration,"[3]; BDM given before aramine 30 μg/ml, 0.4 ml/min I.V.",126.3 ± 16.1^★★ mmHg
same,"Diastolic pressure, Blood Pressure before","[3]; baseline, mean±SD, n=6–7",68.7 ± 8.8 mmHg
same,"Systolic pressure, Blood Pressure before","[3]; baseline, mean±SD, n=6–7",117.3 ± 3.2 mmHg
same,Diastolic blood pressure following aramine administration in BDM group,[3]; control about 120,~75 mmHg
same,Systolic blood pressure following aramine administration in BDM group,[3]; control about 185,about 125 mmHg
same,Diastolic blood pressure after administration of BDM,"[3]; down from 68, approximately",~40 mmHg
same,Systolic blood pressure after administration of BDM,"[3]; down from 117, approximately",~84 mmHg
same,Diastolic pressure 2 min. after BDM administration,[4]; [7],73.8 ± 4.9^★★ mmHg
same,Diastolic pressure 5 min. after BDM administration,[4]; [7],77.0 ± 9.1^★★ mmHg
same,Diastolic pressure 10 min. after BDM administration,[4]; [7],76.3 ± 5.2^★★ mmHg
same,Systolic pressure 2 min. after BDM administration,[4]; [7],123.7 ± 6.0^★★ mmHg
same,Systolic pressure 5 min. after BDM administration,[4]; [7],128.3 ± 5.2^★★ mmHg
same,Systolic pressure 10 min. after BDM administration,[4]; [7],130.5 ± 4.2^★★ mmHg
same,"Diastolic pressure, Blood Pressure before","[4]; baseline, mean±SD, n=6–7",74.0 ± 15.4 mmHg
same,"Systolic pressure, Blood Pressure before","[4]; baseline, mean±SD, n=6–7",123.3 ± 10.1 mmHg
same,Diastolic pressure 2 min. after aramin administration,[4]; before BDM,121.5 ± 5.5 mmHg
same,Diastolic pressure 5 min. after aramin administration,[4]; before BDM,122.2 ± 5.1 mmHg
same,Diastolic pressure 10 min. after aramin administration,[4]; before BDM,117.7 ± 9.5 mmHg
same,Systolic pressure 2 min. after aramin administration,[4]; before BDM,182.7 ± 6.0 mmHg
same,Systolic pressure 5 min. after aramin administration,[4]; before BDM,183.5 ± 5.5 mmHg
same,Systolic pressure 10 min. after aramin administration,[4]; before BDM,181.8 ± 6.4 mmHg
same,Average decrease of diastolic blood pressure after BDM administration,[4]; [8],42 mmHg
same,Average decrease of systolic blood pressure after BDM administration,[4]; [8],54 mmHg
same,Convulsion,"[5]; curative: BDM 0.2M, 20 ml/kg I.P. immediately after strychnine 1.5 mg/kg I.P.",100%
same,The latent period,[5]; [9],134.2 ± 31.5 s
same,Convulsion-Death time,[5]; [9],538.3±169.3 s and 538.3 ± 169.3^★★ s
same,Death,[5]; [9],100%
same,Behaviour of the animals after administration of BDM,"[5]; mice, BDM 0.2M, 20 ml/kg, I.P.","reducing activities, difficulties in action and toddling"
same,Convulsion,"[5]; preventive: BDM 0.2M, 20 ml/kg I.P. 0.5 h prior to strychnine 1.5 mg/kg I.P.",100%
same,The latent period,[5]; [10],183.8 ± 32.6 s
same,Convulsion-Death time,[5]; [10],496.3±285.3 s and 496.3 ± 285.3^★★ s
same,Death,[5]; [10],100%
